Data set [1] relates to Human red blood cells. Description: Hemolytic assay. The format is cell-based. Particulars: red cells of human, 1 h. As for the experimental part: Human red blood cells (hRBCs, the UNMC Blood Bank) were washed three to five times with saline (Fisher Scientific, Waltham, MA, USA) at 800 g for 10 min each time, until the supernatant was clear. The supernatant was discarded, and hRBCs were suspended in saline at a final density of 2%. Ninety microliters of hRBC suspensions were added to each well of 96-well plates containing 10 µL of 10× serially diluted peptides. After incubation at 37 °C for 1 h, the plates were centrifuged at 1500 rpm for 5 min. About 80 µL of the supernatant was carefully pipetted to a new 96-well microplate and read at 545 nm to measure the amount of hemoglobin released. The positive control was 1% Triton X-100, and the negative control was saline. The percentage of hRBC lysis was calculated based on the hemoglobin released.

Data set [2] relates to S. aureus USA300. It is filed as cell-based, Staphylococcus aureus. As to the method: (§1) The antibiotic-resistant pathogens used in this study include the Gram-positive bacteria Enterococcus faecium V286-17 and Staphylococcus aureus USA300 LAC and the Gram-negative bacteria Klebsiella pneumoniae E406-17, Acinetobacter baumannii B28-16, Pseudomonas aeruginosa E411-17, and Escherichia coli E423-17. All bacteria were cultivated in tryptic soy broth (TSB) at 37 °C, 220 rpm.
(§2) The antibacterial activity of peptides was evaluated using a standard broth microdilution protocol with minor modifications. In brief, peptides were made at various concentrations, 10 μL per well in a 96-well polystyrene microplate. Logarithmic phase bacterial cultures (i.e., optical density (OD) at 600 nm ≈ 0.5) were diluted to 0.001 OD, and aliquots of 90 μL were added to each well. Untreated bacterial culture and medium were included as positive and negative controls, respectively. Plates were incubated at 37 °C overnight and read at 630 nm using a ChroMate Microplate Reader (Awareness Technology, Palm City, FL, USA). […] Our previously designed peptide 17BIPHE2 [32] was included as a positive control, and RI-10, a peptide without antibacterial activity in rich media, was utilized as a negative control.

Data set [3] deals with S. aureus USA300 LAC. The experiment in a line: Membrane permeabilization (propidium iodide). It is filed as cell-based, Staphylococcus aureus. The settings on record: peptide 8 µM; propidium iodide fluorescence, 2 h, PBS, 37 °C. As for the experimental part:
(§3) Membrane permeabilization was evaluated as described. In brief, bacteria were inoculated and grown overnight. A second inoculation was made and let bacteria grow to the exponential phase. Bacteria were then spun, washed, and resuspended in the same volume of PBS. A series of peptide solutions (10×) was made via two-fold dilution in a 96-well plate (10 µL each). All wells were aliquoted with 2 µL of propidium iodide (20 µM), followed by adding 88 µL of S. aureus USA300 or A. baumannii B28-16 (OD600 ~0.11 in PBS). The plate was incubated at 37 °C with continuous shaking at 100 rpm in a FLUOstar Omega microplate reader (BMG Labtech Inc., Cary, NC, USA). Fluorescence was recorded every 5 min for 2 h with excitation and emission wavelengths of 485 and 620 nm. The data were analyzed by the vendor’s software using averaged values from duplicated experiments.

In data set [4] the test system is P. aeruginosa E411-17. The format is cell-based, Pseudomonas aeruginosa. Particulars: E411-17. As for the experimental part:
as §1, §2

The test system of data set [5] is K. pneumoniae E406-17. The format is cell-based, Klebsiella pneumoniae. The settings on record: E406-17. As to the method: as §1, §2
Data set [6] relates to A. baumannii B28-16. The format is cell-based, Acinetobacter baumannii. As to the method: as §1, §2
The test system of data set [7] is A. baumannii B28-16. The experiment in a line: Membrane permeabilization (propidium iodide). The format is cell-based, Acinetobacter baumannii. The settings on record: peptide 16 µM; propidium iodide fluorescence, 2 h, PBS, 37 °C. As to the method:
as §3

In data set [8] the test system is A. baumannii B28-16 preformed biofilms. The experiment in a line: Disruption of preformed biofilms (XTT). It is filed as cell-based, Acinetobacter baumannii. As for the experimental part:
(§4) The antibiofilm activities of peptides against the preformed biofilms of A. baumannii B28-16 and S. aureus USA300 LAC were evaluated as follows. Bacteria in the logarithmic growth phase were adjusted to a cell density of 10^5 colony forming unit (CFU)/mL. Two hundred microliter cells were seeded into each well of the 96-well plates. The plates were incubated at 37 °C to allow for the formation of biofilm for 24, 48, and 72 h, respectively. The planktonic cells were then removed, followed by a wash. The biofilms were then treated with 20 µL of 10× two-fold diluted peptides and 180 µL of fresh TSB media for 24 h at 37 °C. Cultures treated with water without peptide served as the positive control, and media treated with water was used as the negative control. To quantify the antibiofilm activity of the peptides, the XTT [2, 3-bis (2-methyloxy-4-nitro-5-sulfophenyl)-2H-tertazolium-5-carboxanilide] assay staining method was used to quantitate the live cells. Absorbance was read at 450 nm using a ChroMate microliter plate reader. The percentage biofilm growth for the peptide was plotted by assuming 100% biofilm growth in untreated bacterial control wells. Data were represented as mean ± standard deviation (SD). The data are statistically significant at p < 0.05. Plots were generated using GraphPad Prism v7 (GraphPad Software, San Diego, CA, USA).

Data set [9] is described as follows: HPLC retention time (measure of peptide hydrophobicity). The format is physicochemical. Particulars: chromatographic, Waters C8 symmetry hydrophobic column, as described in ref 34; used as indicator of peptide hydrophobicity. From the text:
In the membrane-bound LL-37 structure determined by 3D NMR spectroscopy, a hydrophobic gap exists (Figure 1A). The location of a hydrophilic S9 on the hydrophobic surface of LL-37 splits the long helix into two hydrophobic domains (gold sticks). The SK-24 peptide we identified here corresponds to the long hydrophobic domain [26]. The amino acid sequence of SK-24, along with LL-37 and its derived antimicrobial peptides, is depicted in Figure 1B. Peptide parameters, including net charge, hydrophobic content, Boman index, GRAVY, hydrophobicity, and hydrophobic moment of each peptide, were calculated using online tools, such as the APD [8] and HeliQuest (Table 1). Except for the shortest RI-10 (net charge +3), LL-37 and its other derived peptides have net charges +5 or +6, above the average net charge (+3.3) of natural antimicrobial peptides registered in the APD [8, 35, 36]. Overall, the hydrophobic percentages (Pho) of these peptides calculated in the APD are proportional to the hydrophobicity and hydrophobic moment calculated by HeliQuest in Table 1. Of note, LL-37 has the highest net charge (+6) and Boman index but the lowest Pho%, GRAVY, and hydrophobic moment.
All peptides were chemically synthesized and purified to >95% (Genemed Synthesis, San Antonio, TX, USA). The quality of each peptide was determined based on mass spectrometry (MS) and high-performance liquid chromatography (HPLC). Peptide stock solutions were freshly made by solubilizing in autoclaved distilled water, and their concentrations were quantitated using UV spectroscopy based on the absorbance difference at 215 and 225 nm as described. Peptide retention time was measured on a Waters C8 symmetry hydrophobic column as described. Other chemicals were purchased from Sigma (St. Louis, MO, USA) unless specified.

The test system of data set [10] is E. coli E423-17. It is filed as cell-based, Escherichia coli. As for the experimental part:
as §1, §2

Data set [11] deals with S. aureus USA300 LAC. Description: Membrane depolarization (DiBAC4(3)). The format is cell-based, Staphylococcus aureus. Particulars: peptide 8 µM; similar trends at 16 and 32 µM; DiBAC4(3) fluorescence. As to the method: The experiment was conducted as described. In brief, an overnight culture of S. aureus USA300 LAC was subcultured in a fresh TSB medium and grown to the exponential phase. Cells were spun using centrifugation and washed twice with PBS, and resuspended in twice the volume of PBS containing 25 mM glucose and incubated at 37 °C for 15 min. For membrane depolarization measurements, 500 nM (final concentration) of the dye DiBAC4 (3) (bis-(1,3- dibutylbarbituric acid) trimethine oxonol) (AnaSpec, San Jose, CA, USA) was added and vortexed gently. Aliquots of 90 μL of the energized bacteria solution were loaded to the wells, and the plate was fed into a FLUOstar Omega microplate reader. Fluorescence was read for 20 min at excitation and emission wavelengths of 485 and 520 nm, respectively, to get dye normalization. Then 10 μL of diluted peptide solutions were added and gently mixed. Fluorescence readings were recorded for 40 min, where Triton X-100 (0.1%) was used as a positive control.

Data set [12] relates to E. faecium V284-17. The format is cell-based, Enterococcus faecium. Particulars: V284-17.
The test system of data set [13] is S. aureus USA300 LAC preformed biofilms. Description: Disruption of preformed biofilms (XTT). It is filed as cell-based, Staphylococcus aureus. Particulars: 24 h preformed biofilms of S. aureus USA300; XTT. As to the method: as §4
For data set [14], the system named is clinical and antibiotic-resistant pathogens (panel of Table 3). The format is cell-based. Particulars: all pathogens of Table 3; peptide 32 µM. As to the method: as §1, §2
The test system of data set [15] is S. aureus USA300 LAC preformed biofilms. The settings on record: S. aureus USA300 LAC and other clinical strains (USA200, USA400, Mu50); cited from earlier work. As to the method: Here, we compared the antibiofilm activity of SK-24 with that of GF-17, GI-20, and 17BIPHE2 against the 24 h preformed biofilms of S. aureus USA300. […] Only SK-24 a ...

No end group written: not given here.

Data on two substances can be found in PMC8703873, “Structure and Activity of a Selective Antibiofilm Peptide SK-24 Derived from the NMR Structure of Human Cathelicidin LL-37” (Pharmaceuticals, 2021).

In the case of GIKEFKRIVQRIKDFLRNLV-NH2 [GI-20], in [1], the “HC50 (50% hemolytic concentration)” value is ~ 160 µM. Besides, the MIC in data set [2] is 2 to 4 µM; in data set [4], greater than 32 µM; in data set [5], greater than 32 µM; in data set [6], 8 µM; in data set [10] it was 32 µM; in [12] it was 2 µM. Besides, the results for the “Membrane permeation” value in data set [3] and in data set [7] were “more powerful” and “superior to SK-24”, respectively. Further, the Biofilm disruption in data set [8] (72 h preformed biofilms, peptide 64 μM, highest concentration tested) was 30–50%. Also, the “Disruption of 48 h biofilms” value in data set [8] (biofilms established for 48 h, 24 h treatment) is given as “only worked at 64 μM”. The “Reduction of 24 h biofilms” value in [8] (biofilms established in 24 h, 24 h treatment) was “dose-dependent manner”. Also, the “tHPLC (HPLC retention time)” value in data set [9] is reported as 12.681 min. In data set [11], the “Membrane depolarization ability (order, words)” value is reported as “GI-20 > 17BIPHE2 > GF-17~SK-24 > LL-37”. For the same substance, in data set [13], the “Antibiofilm effect on 24 h preformed biofilms” value is “antibiofilm effect in a dose-dependent manner”.

Take RIVQRIKDFL-NH2 [RI-10]: the MIC in data set [2], in data set [4], in [5], in data set [6], in [10] and in data set [12] was greater than 32 µM each time. In addition, the “Membrane permeation” value in data set [3] and in [7] was “some membrane permeation” throughout. For the same substance, the “Inhibitory activity at 32 µM” value in [14] is on record as “did not show any inhibitory activity”. The “Disruption of preformed biofilms” value in data set [8] (biofilms formed for 24, 48 and 72 h, peptide at 8, 16, 32 or 64 μM for 24 h) is reported as “unable to disrupt”. In [9], the “tHPLC (HPLC retention time)” value worked out at 8.831 min. The “Disruption of 24 h preformed biofilms (words, found previously)” value in data set [15] is recorded as “neither LL-37 nor RI-10 was able to disrupt”. For the same substance, the “Membrane depolarization ability (order, words)” value in [11] was “unable to produce a similar effect”.
